Data published in the supplement of paper PMC10307832.

Assays:
Assay in all cases: relative viability (nuclei count vs DMSO), 5 days (fraction); higher = more cells survive
[1] = compound: CN1CCN(c2ccc3nc(-c4c(N)c5c(F)cccc5[nH]c4=O)[nH]c3c2)CC1 [Dovitinib] + C[C@]1(O)C[C@@H](c2nc(-c3ccc4ccc(-c5ccccc5)nc4c3)c3c(N)nccn32)C1 [Linsitinib] (partner 1 µM)
Outline: (§1)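 Lung cancer cell lines were seeded in 1536-well plates and dosed by pin tool the next day, with either a single drug or a fixed anchor-drug dose combined with five library-drug doses (not always all listed) spaced in √10 steps. Five days later, one step fixed the cells and stained their nuclei (final 0.05% Triton X-100, 1% formaldehyde, 1 ug/ml Hoechst), and nuclei were counted on 4× images. Relative viability is the nuclei count in treated wells divided by the count in vehicle wells, and each value is the median of duplicate plates.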

[2] = compound: CN1CCN(c2ccc3nc(-c4c(N)c5c(F)cccc5[nH]c4=O)[nH]c3c2)CC1 [Dovitinib] + CC1(C)CCC(c2ccc(Cl)cc2)=C(CN2CCN(c3ccc(C(=O)NS(=O)(=O)c4ccc(N[C@H](CCN5CCOCC5)CSc5ccccc5)c(S(=O)(=O)C(F)(F)F)c4)cc3)CC2)C1 [Navitoclax] (partner 0.5 µM)
Outline: as §1

[3] = compound: CN1CCN(c2ccc3nc(-c4c(N)c5c(F)cccc5[nH]c4=O)[nH]c3c2)CC1 [Dovitinib] + O=C(CCCCCCC(=O)Nc1ccccc1)NO [Vorinostat] (partner 1 µM)
Outline: as §1

[4] = compound: CN1CCN(c2ccc3nc(-c4c(N)c5c(F)cccc5[nH]c4=O)[nH]c3c2)CC1 [Dovitinib] + Nc1nc2[nH]cc(CCc3ccc(C(=O)N[C@@H](CCC(=O)O)C(=O)O)cc3)c2c(=O)[nH]1 [Pemetrexed] (partner 0.2 µM)
Outline: as §1

Cell Line	relative viability ([1]; first compound 0.02 µM)	relative viability ([1]; first compound 0.06325 µM)	relative viability ([1]; first compound 0.6325 µM)	relative viability ([1]; first compound 2 µM)	relative viability ([2]; first compound 0.02 µM)	relative viability ([2]; first compound 0.06325 µM)	relative viability ([2]; first compound 0.6325 µM)	relative viability ([2]; first compound 2 µM)	relative viability ([3]; first compound 0.02 µM)	relative viability ([3]; first compound 0.06325 µM)	relative viability ([3]; first compound 0.2 µM)	relative viability ([3]; first compound 0.6325 µM)	relative viability ([3]; first compound 2 µM)	relative viability ([4]; first compound 0.02 µM)	relative viability ([4]; first compound 0.06325 µM)	relative viability ([4]; first compound 0.2 µM)	relative viability ([4]; first compound 0.6325 µM)	relative viability ([4]; first compound 2 µM)	relative viability ([1]; first compound 0.2 µM)	relative viability ([2]; first compound 0.2 µM)
201T	0.988	0.944	0.945	0.995	1.12	1.21	1.22	1.21	0.862	0.957	0.908	0.947	0.949	0.387	0.392	0.366	0.34	0.298	–	–
A-427	1.05	1.07	1.09	1.08	0.91	0.933	0.902	0.822	0.83	0.845	0.895	0.941	0.991	0.907	0.988	1.04	0.967	1.06	1.14	0.942
ABC-1	0.848	0.865	1.02	0.618	–	–	–	–	1.14	1.12	1.07	1.18	1.18	–	–	–	–	–	0.842	–
BEN	0.874	0.873	0.922	0.898	0.0734	0.0569	0.0923	0.0738	0.551	0.542	0.578	0.598	0.57	0.713	0.812	0.633	0.836	0.697	1.07	0.0676
CAL-12T	0.839	0.894	0.784	0.82	1.24	1.12	1.17	1.42	0.754	0.73	0.926	0.829	0.764	1.11	1.16	1.21	1.24	1.17	0.756	1.43
COR-L23	0.876	1.05	0.896	1.04	0.962	1.19	1.05	1.07	0.431	0.505	0.551	0.379	0.462	0.194	0.211	0.2	0.208	0.212	0.943	1.02
COR-L 105	1.04	0.912	0.855	0.961	0.701	0.62	0.646	0.806	0.867	0.801	0.833	0.69	0.794	1.23	1.09	1.05	1	0.92	0.834	0.754
Calu-6	0.947	0.955	0.93	0.887	0.828	0.784	0.813	0.782	–	–	–	–	–	–	–	–	–	–	0.935	0.828
ChaGo-K-1	–	–	–	–	1.01	0.976	1.14	1.18	0.739	0.814	0.758	0.766	0.706	0.263	0.25	0.251	0.258	0.26	–	0.975
EKVX	1.01	1.05	1.02	0.978	0.923	0.989	0.989	0.883	0.799	0.776	0.836	0.75	0.739	0.434	0.385	0.42	0.46	0.372	1	1.1
EMC-BAC-2	0.799	0.799	0.797	0.843	1.12	1.2	1.15	1.13	0.512	0.449	0.422	0.522	0.517	0.555	0.442	0.487	0.445	0.459	0.825	1.12
EPLC-272H	1.17	1.16	1.11	1.16	1.05	0.993	1.49	0.97	0.564	0.522	0.434	0.402	0.367	0.408	0.35	0.274	0.398	0.372	1.2	1.24
H3255	1	0.937	1.02	1.02	0.627	0.532	0.559	0.582	0.684	0.886	0.862	0.778	0.711	0.609	0.579	0.568	0.64	0.599	1.01	0.569
HARA	1	0.943	0.968	0.859	1.16	1.16	1.15	1.15	0.553	0.542	0.645	0.676	0.569	0.256	0.254	0.233	0.241	0.258	0.924	1.12
HCC-15	0.952	0.831	0.879	0.941	0.777	0.701	0.708	0.7	0.931	0.873	0.815	0.837	0.85	0.225	0.228	0.213	0.231	0.216	0.938	0.707
HCC-44	0.681	0.667	0.773	0.628	0.954	0.925	0.974	0.876	1.08	1.1	1.08	1.09	1.08	0.617	0.659	0.685	0.687	0.586	0.681	0.923
HCC-78	0.693	–	0.478	0.532	0.784	–	0.754	0.772	0.413	0.415	0.39	0.533	0.431	0.914	0.934	0.931	0.889	0.865	0.626	0.827
HCC-366	0.645	0.584	0.665	0.592	1.07	1.16	1.08	0.971	0.325	0.353	0.338	0.429	0.385	0.129	0.208	0.161	0.161	0.166	0.549	1.02
HCC-827	0.895	0.97	0.928	0.898	1.03	1.02	1	0.974	0.799	0.867	0.876	0.841	0.805	0.259	0.119	0.245	0.264	0.25	0.959	1.07

Cell Line	relative viability ([1]; first compound 0.02 µM)	relative viability ([1]; first compound 0.06325 µM)	relative viability ([1]; first compound 0.6325 µM)	relative viability ([1]; first compound 2 µM)	relative viability ([2]; first compound 0.02 µM)	relative viability ([2]; first compound 0.06325 µM)	relative viability ([2]; first compound 0.6325 µM)	relative viability ([2]; first compound 2 µM)	relative viability ([3]; first compound 0.02 µM)	relative viability ([3]; first compound 0.06325 µM)	relative viability ([3]; first compound 0.2 µM)	relative viability ([3]; first compound 0.6325 µM)	relative viability ([3]; first compound 2 µM)	relative viability ([4]; first compound 0.02 µM)	relative viability ([4]; first compound 0.06325 µM)	relative viability ([4]; first compound 0.2 µM)	relative viability ([4]; first compound 0.6325 µM)	relative viability ([4]; first compound 2 µM)	relative viability ([1]; first compound 0.2 µM)	relative viability ([2]; first compound 0.2 µM)
HOP-62	0.784	0.852	0.921	1.03	0.95	0.995	1.1	1.08	0.469	0.469	0.588	0.667	0.797	0.272	0.337	0.32	0.269	0.385	1.1	1.01
IA-LM	0.602	0.544	0.614	0.547	0.778	0.961	0.704	0.76	0.962	0.883	1.13	0.973	0.897	–	–	–	–	–	0.627	0.814
LC-2-ad	0.798	0.919	0.782	0.773	0.463	0.603	0.382	0.376	0.674	0.735	0.712	0.758	0.804	0.27	0.29	0.306	0.259	0.269	0.84	0.403
LCLC-97TM1	0.216	0.21	0.152	0.213	0.368	0.384	0.403	0.478	0.719	0.612	0.734	0.688	0.751	0.16	0.155	0.198	0.184	0.163	0.201	0.339
LCLC-103H	1.09	0.988	1.08	1.04	–	–	–	–	0.731	0.746	0.756	0.872	0.8	0.494	0.457	0.475	0.434	0.459	1.03	–
LK-2	0.688	0.604	0.608	0.565	0.995	0.896	0.766	0.767	0.262	0.403	0.373	0.373	0.364	0.309	0.274	0.287	0.342	0.265	0.484	0.876
NCI-H358	0.743	0.656	0.66	0.854	–	–	–	–	0.673	0.808	0.738	0.619	0.639	0.169	0.171	0.186	0.18	0.176	0.826	–
NCI-H522	–	–	–	–	–	–	–	–	0.811	0.848	0.923	0.837	1.01	1.05	1.03	1.22	0.949	1.02	–	–
NCI-H650	0.953	0.675	0.95	1.01	–	–	–	–	0.368	0.414	0.58	0.395	0.774	0.908	0.856	0.898	0.983	0.956	0.839	–
NCI-H661	0.537	0.547	0.613	0.654	–	–	–	–	0.733	0.837	0.826	0.938	0.843	0.888	0.927	0.935	0.878	0.949	0.618	–
NCI-H727	0.271	0.325	0.298	0.408	0.497	0.491	0.468	0.414	1.19	1.12	1.25	1.39	1.25	–	–	–	–	–	0.314	0.421
NCI-H1563	1.28	1.17	1.21	1.2	–	–	–	–	–	–	–	–	–	0.692	0.922	0.933	0.913	0.829	1.14	–
NCI-H1648	–	–	–	–	–	–	–	–	0.402	0.422	0.425	0.361	0.516	0.521	0.729	0.628	0.804	0.631	–	–
NCI-H1650	–	–	–	–	1.12	1.2	1.05	1.08	0.569	0.432	0.785	0.703	0.554	0.404	0.347	0.395	0.339	0.354	–	1.25
NCI-H1703	0.853	0.868	0.533	0.403	1.18	1.41	0.775	0.33	–	–	–	–	–	–	–	–	–	–	0.671	0.84
NCI-H1792	0.621	0.44	0.598	0.522	0.671	0.637	0.751	0.588	–	–	–	–	–	0.909	0.631	0.672	0.972	0.827	0.602	0.62
NCI-H2170	–	–	–	–	0.58	0.63	0.531	0.612	0.752	0.783	0.819	0.839	0.783	0.267	0.33	0.267	0.265	0.281	–	0.756
NCI-H2342	–	–	–	–	–	–	–	–	0.738	0.71	0.781	0.717	0.735	0.787	0.74	0.74	0.835	0.777	–	–
SW 900	–	–	–	–	–	–	–	–	0.699	0.402	0.518	0.616	0.493	0.473	0.477	0.476	0.534	0.491	–	–
